US10624346B2, “Herbicidal composition and method for controlling weeds” (Sumitomo Chemical Company, Limited, priority 2016, dated 2020)

Assays:
Echinochloa crus-galli = assay: Greenhouse pot test, post-emergence spray, herbicidal effect (Examples 202, 203); format: in vivo; conditions: sprayed at 2-3 leaf stage, one week
Text: (§1) A plastic pot was filled with a commercially-available culture soil, and thereto inubie (common barnyardgrass; Echinochloa crus-galli) or akinoenokorogusa (giant foxtail; […] When the weeds grew to two to three leaf stage, a spray liquid of the compound X, a spray liquid of dicamba diglycolamine salt, or a spray liquid of the present composition was uniformly sprayed to the whole plants so that the application rate might be a predetermined value. The spray liquid of the present composition was prepared by mixing the spray liquid of the compound X with the spray liquid of dicamba diglycolamine salt. The spray liquid of the compound X was prepared by mixing a predetermined amount of the formulation X with deionized water. […] After applying the spray liquid, the plants were placed in a greenhouse for a week. […] A plastic pot was filled with a commercially-available culture soil, and thereto inubie (common barnyardgrass; Echinochloa crus-galli) or akinoenokorogusa (giant foxtail; […] The spray liquid of the compound X was prepared by mixing a predetermined amount of the formulation X with deionized water. […] After applying the spray liquid, the plants were placed in a greenhouse for a week.

Setaria faberi = assay: as above; format: in vivo; conditions: sprayed at 2-3 leaf stage, one week
Text: as §1

[1] = Compound X 5 g/ha alone, scale 0 (no effect) to 100 (completely dead)
[2] = Compound X 10 g/ha alone, scale 0-100
[3] = dicamba salt 50 g/ha alone, scale 0-100
[4] = dicamba salt 500 g/ha alone, scale 0-100

Compound	Herbicidal effect on Echinochloa crus-galli (observed value) (Echinochloa crus-galli; [1])	Herbicidal effect on Echinochloa crus-galli (observed value) (Echinochloa crus-galli; [2])	Herbicidal effect on Setaria faberi (observed value) (Setaria faberi; [1])	Herbicidal effect on Setaria faberi (observed value) (Setaria faberi; [2])	Herbicidal effect on Echinochloa crus-galli (observed value) (Echinochloa crus-galli; [3])	Herbicidal effect on Echinochloa crus-galli (observed value) (Echinochloa crus-galli; [4])	Herbicidal effect on Setaria faberi (observed value) (Setaria faberi; [3])	Herbicidal effect on Setaria faberi (observed value) (Setaria faberi; [4])
CCOC(=O)COc1ncccc1Oc1cc(-n2c(=O)cc(C(F)(F)F)n(C)c2=O)c(F)cc1Cl [Compound X, ethyl [3-[2-chloro-4-fluoro-5-(1-methyl-6-trifluoromethyl-2,4-dioxo-1,2,3,4-tetrahydropyrimidin-3-yl)phenoxy]-2-pyridyloxy]acetate]	20	35	30	45	–	–	–	–
CN(CCCN)CCCN.COc1c(Cl)ccc(Cl)c1C(=O)O [dicamba BAPMA salt, dicamba N,N-bis(3-aminopropyl)methylamine salt]	–	–	–	–	0	5	0	10
COc1c(Cl)ccc(Cl)c1C(=O)O.NCCOCCO [dicamba diglycolamine salt]	–	–	–	–	0	10	0	0
